{"source": "patent US4080450A", "about": "“2-Carbamoyl-1,2,4,5-tetrahydro-3H-2-benzazepin-3-ones” (U C B, Societe Anonyme, priority 1976, dated 1978)", "key": {"[1]": {"test": "Brevatonal test (protection against hypoxic type aggressions)", "format": "in vivo, mice", "details": "i.p.", "method": "At the doses used, this curarizing agent brings about a respiratory depression which, in turn, brings about a hypoxi-hypercapnic syndrome. A compound capable of protecting the brain during this short period of hypoxia ensures survival. The compounds are administered to groups of 10 mice one hour before the injection of the curarizing agent; concurrently herewith, a control group of 10 mice is given a physiological salt solution prior to the curarizing agent. For each compound, the proportion of mice which survive is compared to the proportion of control mice which survive by the \"Fisher exact probability test\". This test, called the Brevatonal test, has also been developed in our laboratories.\nIntraperitoneal administration (i.p.) of compounds according to the present invention, namely, 2-methylcarbamoyl-1,2,4,5-tetrahydro-3H-2-benzazepin-3-one (compound A), 4,5-dimethyl-2-methylcarbamoyl-1,2,4,5-tetrahydro-3H-2-benzazepin-3-one (compound B) and 4-n-butyl-2-methylcarbamoyl-1,2,4,5-tetrahydro-3H-2-benzazepin-3-one (compound I) under these conditions produced the effects summarized in the following Table II."}, "[2]": {"test": "active avoidance test (memory retention)", "format": "in vivo, rat", "details": "for minimal effective dose: Rattus norvegicus, sc, subcutaneous, minimum dose which lowers the stimulus to below 110 g", "text": "The principle of the active avoidance test, which has been developed in our laboratories and used for this purpose, may be described as follows: the withdrawal reaction of a rat's paw subjected to increasing and measured pressure is observed. The pressure at which the withdrawal reaction is produced is called the reaction threshold. The latter is expressed in grams and thus corresponds to the minimum pressure which, when applied to the paw of the animals causes withdrawal. It is read off directly from a scale on the apparatus used. […] A minimum of 20 rats are used for each test (10 treated rats and 10 control rats), the active dose being defined as the minimum dose which lowers the stimulus to below 110 g.\n*Stimulus (expressed in g.) initiating the avoidance reaction 24 hours\nafter the first stimulation."}, "[3]": {"test": "toxicity, lethal dose (LD50)", "details": "in vivo, ip; rat, intraperitoneal", "method": "The new compounds according to the present invention appear to have a remarkably low toxicity. For example, for compound A, the lethal dose (LD50) in the rat, when administered intraperitoneally, is more than 1000 mg./kg."}, "[4]": {"test": "spinal fixation time test (elementary model of memory)", "format": "in vivo, rat", "details": "i.p.", "text": "Action on the mnemic processes is shown, in particular, by a reduction in the time for spinal fixation, a test which has been described in the literature (C. GIURGEA and F. MOURAVIEFF-LESUISSE, Arch.Int.Pharmacodyn. 191,(2),(1971),279) as an elementary model of memory and which is endowed with a pharmacological reactivity in good correlation with the clinical physiopathology. In the rat, after unilateral lesion of the cerebellum, there is a postural asymmetry of the hind paws. This asymmetry may persist, even after spinal section, if the animal has been in this situation for a sufficiently long period of time. This time, which is called the spinal fixation time, is 45 minutes under the experimental conditions. On the other hand, if spinal section is performed before the expiry of this period, for example 35 minutes after the onset of the asymmetry, the latter disappears. […] Conversely, any compound which allows the rats to retain the asymmetry (thus achieving spinal fixation) when the spinal section is carried out after 35 minutes, is regarded as being active.\nUnder these conditions, administration of a compound according to the present invention, for example 2-methyl-carbamoyl-1,2,4,5-tetrahydro-3H-2-benzazepin-3-one (compound A) or 4,5-dimethyl-2-methylcarbamoyl-1,2,4,5-tetrahydro-3H-2-benzazepin-3-one(compound B), produces the following effects: […]"}, "[5]": {"details": "30 mg./kg. (0.2 mmole/kg.), Giurgea and Mouravieff-Lesuisse, cited from earlier work"}}, "note": "Where “and” joins values, the source holds several entries; their conditions need not be identical. Equal entries are not always repeated. Where two headings read alike, the source gives them in different places."}
{"smiles": "CCCCC1Cc2ccccc2CN(C(=O)NC)C1=O", "note": "(stereo not shown) [I, 4-n-butyl-2-methylcarbamoyl-1,2,4,5-tetrahydro-3H-2-benzazepin-3-one]", "values": [{"measurement": "Proportion of survivors, treated animals", "setting": "[1]; 27 mg./kg. (0.1 mmole/kg.), control 1/10", "result": "7/10"}, {"measurement": "Proportion of survivors, treated animals", "setting": "[1]; 87 mg./kg. (0.32 mmole/kg.), control 1/10", "result": "8/10"}]}
{"smiles": "CCCCNC(=O)N1C(=O)CCc2cc(OC)ccc2C1c1ccccc1", "note": "(stereo not shown) [G, 2-n-butylcarbamoyl-7-methoxy-1-phenyl-1,2,4,5-tetrahydro-3H-2-benzazepin-3-one]", "values": [{"measurement": "Stimulus initiating the avoidance reaction 24 hours after the first stimulation", "setting": "[2]; subcut. dose 0.72 mg./kg.", "result": 106, "unit": "g"}, {"measurement": "Stimulus initiating the avoidance reaction 24 hours after the first stimulation", "setting": "[2]; subcut. dose 3.66 mg./kg.", "result": 95, "unit": "g"}]}
{"smiles": "CNC(=O)N1Cc2ccc(Cl)cc2CCC1=O", "note": "[D, 7-chloro-2-methylcarbamoyl-1,2,4,5-tetrahydro-3H-2-benzazepin-3-one]", "values": [{"measurement": "minimal effective dose", "setting": "[2]", "result": "2.52 mg/kg and 10 µmol/kg"}, {"measurement": "Stimulus initiating the avoidance reaction 24 hours after the first stimulation", "setting": "[2]; subcut. dose 1.26 mg./kg., control (dose 0) 157", "result": 122, "unit": "g"}, {"measurement": "Stimulus initiating the avoidance reaction 24 hours after the first stimulation", "setting": "[2]; subcut. dose 2.52 mg./kg., control (dose 0) 157", "result": 100, "unit": "g"}]}
{"smiles": "CNC(=O)N1Cc2ccccc2CCC1=O", "note": "[A, 2-methylcarbamoyl-1,2,4,5-tetrahydro-3H-2-benzazepin-3-one]", "values": [{"measurement": "minimal effective dose", "setting": "[2]", "result": "2.18 mg/kg and 10 µmol/kg"}, {"measurement": "Stimulus initiating the avoidance reaction 24 hours after the first stimulation", "setting": "[2]; subcut. dose 1.09 mg./kg., control (dose 0) 159", "result": 120, "unit": "g"}, {"measurement": "Stimulus initiating the avoidance reaction 24 hours after the first stimulation", "setting": "[2]; subcut. dose 2.18 mg./kg., control (dose 0) 159", "result": 89, "unit": "g"}, {"measurement": "Proportion of survivors, treated animals", "setting": "[1]; 70 mg./kg. (0.32 mmole/kg.), control 1/10", "result": "6/10"}, {"measurement": "LD50", "setting": "[3]", "result": "> 1000", "unit": "mg/kg"}, {"measurement": "spinal fixation after 35 minutes (animals)", "setting": "[4]; 70 mg./kg. (0.3 mmole/kg.)", "result": "three animals out of five"}]}
{"smiles": "CN(C)C(=O)N1Cc2ccccc2CCC1=O", "note": "[H, 2-dimethylcarbamoyl-1,2,4,5-tetrahydro-3H-2-benzazepin-3-one]", "values": [{"measurement": "minimal effective dose", "setting": "[2]", "result": "2.32 mg/kg and 10 µmol/kg"}, {"measurement": "Stimulus initiating the avoidance reaction 24 hours after the first stimulation", "setting": "[2]; subcut. dose 2.32 mg./kg.", "result": 90, "unit": "g"}]}
{"smiles": "NC(=O)CN1CCCC1=O", "note": "[piracetam, reference compound]", "values": [{"measurement": "spinal fixation after 35 minutes (animals)", "setting": "[5]; same conditions", "result": "four animals out of nine"}, {"measurement": "activity in spinal fixation test", "setting": "[5]", "result": "active"}, {"measurement": "minimal effective dose", "setting": "[2]", "result": "3.5 mg/kg and 25 µmol/kg"}, {"measurement": "Stimulus initiating the avoidance reaction 24 hours after the first stimulation", "setting": "[2]; subcut. dose 1.5 mg./kg., control (dose 0) 153", "result": 120, "unit": "g"}, {"measurement": "Stimulus initiating the avoidance reaction 24 hours after the first stimulation", "setting": "[2]; subcut. dose 3.5 mg./kg., control (dose 0) 153", "result": 90, "unit": "g"}, {"measurement": "retention of the earlier test", "setting": "[2]; tested 24 hours later, versus control animals", "result": "significant degree of retention"}, {"measurement": "Proportion of survivors, treated animals", "setting": "[1]; 45 mg./kg. (0.32 mmole/kg.), control 0/10", "result": "1/10"}, {"measurement": "Proportion of survivors, treated animals", "setting": "[1]; 142 mg./kg. (1 mmole/kg.), control 2/10", "result": "4/10"}, {"measurement": "Proportion of survivors, treated animals", "setting": "[1]; 454 mg./kg. (3.2 mmole/kg.), control 1/10", "result": "8/10"}]}
{"smiles": "CNC(=O)N1Cc2ccccc2[C@@H](C)[C@@H](C)C1=O", "note": "(relative stereo) [B, 4,5-dimethyl-2-methylcarbamoyl-1,2,4,5-tetrahydro-3H-2-benzazepin-3-one]", "values": [{"measurement": "minimal effective dose", "setting": "[2]", "result": "1.23 mg/kg and 5 µmol/kg"}, {"measurement": "Stimulus initiating the avoidance reaction 24 hours after the first stimulation", "setting": "[2]; subcut. dose 0.49 mg./kg., control (dose 0) 152", "result": 124, "unit": "g"}, {"measurement": "Stimulus initiating the avoidance reaction 24 hours after the first stimulation", "setting": "[2]; subcut. dose 1.23 mg./kg., control (dose 0) 152", "result": 107, "unit": "g"}, {"measurement": "Proportion of survivors, treated animals", "setting": "[1]; 25 mg./kg. (0.1 mmole/kg.), control 1/10", "result": "7/10"}, {"measurement": "spinal fixation after 35 minutes (animals)", "setting": "[4]; 24 mg./kg. (0.1 mmole/kg.)", "result": "three animals out of seven"}]}
{"smiles": "CC1CC(=O)N(C(=O)N2CCOCC2)Cc2ccccc21", "note": "(stereo not shown) [C, 5-methyl-2-morpholinocarbonyl-1,2,4,5-tetrahydro-3H-2-benzazepin-3-one]", "values": [{"measurement": "minimal effective dose", "setting": "[2]", "result": "2.88 mg/kg and 10 µmol/kg"}, {"measurement": "Stimulus initiating the avoidance reaction 24 hours after the first stimulation", "setting": "[2]; subcut. dose 0.28 mg./kg., control (dose 0) 173", "result": 116, "unit": "g"}, {"measurement": "Stimulus initiating the avoidance reaction 24 hours after the first stimulation", "setting": "[2]; subcut. dose 2.88 mg./kg., control (dose 0) 173", "result": 98, "unit": "g"}]}
{"smiles": "CCCCNC(=O)N1Cc2ccccc2CCC1=O", "note": "[F, 2-n-butylcarbamoyl-1,2,4,5-tetrahydro-3H-2-benzazepin-3-one]", "values": [{"measurement": "minimal effective dose", "setting": "[2]", "result": "< 0.2 mg/kg and < 0.8 µmol/kg"}, {"measurement": "Stimulus initiating the avoidance reaction 24 hours after the first stimulation", "setting": "[2]; subcut. dose 0.2 mg./kg., control (dose 0) 159", "result": 92, "unit": "g"}]}
{"smiles": "CNC(=O)N1Cc2ccc(Cl)cc2CC(C)C1=O", "note": "(stereo not shown) [E, 7-chloro-4-methyl-2-methylcarbamoyl-1,2,4,5-tetrahydro-3H-2-benzazepin-3-one]", "values": [{"measurement": "minimal effective dose", "setting": "[2]", "result": "0.53 mg/kg and 2 µmol/kg"}, {"measurement": "Stimulus initiating the avoidance reaction 24 hours after the first stimulation", "setting": "[2]; subcut. dose 0.26 mg./kg., control (dose 0) 163", "result": 115, "unit": "g"}, {"measurement": "Stimulus initiating the avoidance reaction 24 hours after the first stimulation", "setting": "[2]; subcut. dose 0.53 mg./kg., control (dose 0) 163", "result": 83, "unit": "g"}]}
